Measured values taken from patent EP3355943B1, “METHODS AND SYSTEMS FOR TREATING MEDICAL DEVICES AND FLUIDS” (Ethicon, Inc., priority 2015, dated 2017).
Marks after values point to notes of the source that are not given here.

Assay: Kinetics of removal of LPS with different agitation techniques in presence of stearate salts
Assay type: biochemical
Set-up: Endotoxin Detected: unit not given here
Details: for Endotoxin Detected (EU) / Endotoxin Detected: 5mL SRW, baseline 1,502; for Percent (%) Removed: vs SRW Baseline; for Endotoxin Detected: Table 18
Method: 5mL of SRW was added to each of the tubes. Each solution was tested for endotoxin removal after agitation based on with sonication, vortexing, or test tube rolling. Sonication samples were sonicated at each indicated time interval for 30 seconds at a magnitude of 30. Vortex samples were vortexed at each indicated time interval for 30 seconds at 2500 RPM. Rolling samples were constantly rolling at 10 rpm. The samples were tested on the MCS for endotoxin at 1 minute, 20 minutes, 40 minutes, 60 minutes, and 80 minutes.

Compound | Percent (%) Removed (Rolling, 1 minute) | Percent (%) Removed (Rolling, 20 minutes) | Percent (%) Removed (Rolling, 40 minutes) | Percent (%) Removed (Rolling, 60 minutes) | Percent (%) Removed (Rolling, 80 minutes) | Percent (%) Removed (Sonication, 1 minute) | Percent (%) Removed (Sonication, 20 minutes) | Percent (%) Removed (Sonication, 40 minutes) | Percent (%) Removed (Sonication, 60 minutes) | Percent (%) Removed (Sonication, 80 minutes) | Percent (%) Removed (Vortexing, 1 minute) | Percent (%) Removed (Vortexing, 20 minutes) | Percent (%) Removed (Vortexing, 40 minutes) | Percent (%) Removed (Vortexing, 60 minutes) | Percent (%) Removed (Vortexing, 80 minutes) | further results
CCCCCCCCCCCCCCCCCC(=O)O [Magnesium Stearate] | 29.4% | 25.4% | 29.4% | 25.4% | 20.8% | 50.5% | 52.3% | 45.1% | 41.1% | 53.2% | 41.1% | 33.4% | 40% | 36.2% | 29.4% | Endotoxin Detected (EU) (Rolling, 1 minute): 1,060 EU; Endotoxin Detected (EU) (Rolling, 20 minutes): 1,120 EU; Endotoxin Detected (EU) (Rolling, 40 minutes): 1,060 EU; Endotoxin Detected (EU) (Rolling, 60 minutes): 1,120 EU; Endotoxin Detected (EU) (Rolling, 80 minutes): 1,190 EU; Endotoxin Detected (EU) (Sonication, 1 minute): 743 EU; Endotoxin Detected (EU) (Sonication, 20 minutes): 716 EU; Endotoxin Detected (EU) (Sonication, 40 minutes): 824 EU; Endotoxin Detected (EU) (Sonication, 60 minutes): 884 EU; Endotoxin Detected (EU) (Sonication, 80 minutes): 703 EU; Endotoxin Detected (EU) (Vortexing, 1 minute): 884 EU; Endotoxin Detected (EU) (Vortexing, 20 minutes): 1,000 EU; Endotoxin Detected (EU) (Vortexing, 40 minutes): 901 EU; Endotoxin Detected (EU) (Vortexing, 60 minutes): 958 EU; Endotoxin Detected (EU) (Vortexing, 80 minutes): 1,060 EU
Aluminum Monostearate | 85.3% | 16.1% | 17.4% | 55.3% | 18.8% | 58.3% | 73% | 75% | 71.1% | 80.6% | 45.6% | 43.5% | 47.7% | 46.7% | 49.6% | Endotoxin Detected (Rolling, 1 minute): 221*; Endotoxin Detected (Rolling, 20 minutes): 1,260; Endotoxin Detected (Rolling, 40 minutes): 1,240; Endotoxin Detected (Rolling, 60 minutes): 672; Endotoxin Detected (Rolling, 80 minutes): 1,220; Endotoxin Detected (Sonication, 1 minute): 626; Endotoxin Detected (Sonication, 20 minutes): 406; Endotoxin Detected (Sonication, 40 minutes): 375; Endotoxin Detected (Sonication, 60 minutes): 434; Endotoxin Detected (Sonication, 80 minutes): 291; Endotoxin Detected (Vortexing, 1 minute): 817; Endotoxin Detected (Vortexing, 20 minutes): 849; Endotoxin Detected (Vortexing, 40 minutes): 786; Endotoxin Detected (Vortexing, 60 minutes): 801; Endotoxin Detected (Vortexing, 80 minutes): 757
